The text below walks through data of patent publication US12128129B2, “Lactobacillus plantarum for skin care” (SYMRISE AG, priority 2019, dated 2024).

The test system of assay [1] is HEPKp 3 dimensional skin models. Description: Induction of hyaluronic acid in HEPKp 3D skin models (ELISA). The assay is classed as cell-based, human. The settings on record: 0.005% in cell culture medium, 8 days treatment. As for the experimental part: Induction of Hyaluronic Acid Human epidermal keratinocyte progenitors (HEPKp) generated 3d human skin models were cultivated and systemically treated with test substances. Briefly, defined concentrations of test substances were added to cell culture medium and each skin model was treated in cell culture dishes for up to 9 days at 37° C. and 5% CO2. After the treatment, collected supernatants were stored at −80° C. until further analyses. Viability of the cells was controlled by MTT standard method. Hyaluronic acid concentrations were measured by TECOmedical hyaluronic acid plus ELISA. The experimental procedure was performed as described in the provided protocol.
(An ELISA detects its analyte on a solid surface through an enzyme-linked reagent.)

In assay [2] the test system is S. aureus (DSM799/ATCC6538). Description: Inhibition of Staphylococcus aureus growth (growth curves, OD 620 nm). The assay is classed as cell-based. The conditions noted are these: 0.1 and/or 0.05%, 16 h incubation. As to the method:
Antimicrobial Effects of the Lactobacillus Strains Growth curves of various bacteria were measured photometrically at 620 nm. Inhibition of Staphylococcus aureus: 96-well MTP were prepared according to DIN58940-8 with autoclaved CASO medium (MERCK 1.05459) and test substances dissolved in DMSO or distilled water. The relevant wells were inoculated with S. aureus (DSM799/ATCC6538) using stock cultures maintained in 10% glycerin at −20° C. An inoculum of 1-6×10^6 cfu was added per well. Test substances were analyzed using three or four replicate wells during incubation at 37° C. for 16 hours. Growth curves were determined in each well via absorption at 620 nm using a Sunrise Photometer (Tecan, Austria) and Magellan Software. A concentration of 125 ppm farnesol and 4 ppm triclosan was used as positive control for growth inhibition, both pre-dissolved in DMSO (Merck 802912). For calculation, averages of detected absorptions were calculated and normalized with blank values. These OD values were plotted in function of time for graphical presentation.

Assay [3] relates to HaCaT keratinocytes. Description: IL-8 release after IL-1alpha stimulation of pre-treated keratinocytes (ELISA). The assay is classed as cell-based, human. The conditions noted are these: 0.25 mg/mL, 48 h pre-treatment, then 30 ng/mL IL-1alpha for 8 h. As for the experimental part:
Anti-Inflammatory Effects of Lactobacillus plantarum HEAL 19 and HEAL 99 HaCaT keratinocytes were cultivated in 96-well plates using RPMI-A, medium sterile filtered with L-Glutamine, Capricorn, supplemented with 10% fetal calf serum (FCS), Capricorn. The plates were incubated at 37° C. and 5% CO2. After 24 hours starvation with cell culture medium (RPMI, 1% FCS) the cells were washed once. The anti-inflammatory substances/inactivated bacteria suspensions were suspended in starvation medium, applied and incubated for 24/48 h with parameters described above. […] To remove bacterial cells after pre-incubation all wells were washed with cell culture medium three times. IL-1alpha, Gibco, life technologies was dissolved in H2Odest, diluted in starvation medium and pipetted to wells, preferably at a concentration of 30 ng/mL. Alternatively, a heat inactivated Staphylococcus aureus (DSM799) suspension was used as pro-inflammatory agent in a concentration of 0.1 mg/mL-1 mg/mL dry mass. After 8 h incubation the supernatants were separated. All samples were stored at −80° C. until further analyses. IL-8 concentrations were measured with Human CXCL8/IL-8, DuoSet ELISA, Development Systems, R&D Systems. The experimental procedure was performed as described in the provided protocol. After calculating means of the duplicate/triplicate values and subtraction of the average zero standard optical density the calculation was done using four parameter logistic curve-fit for creating standard curves.

The subject of assay [4] is HaCaT keratinocytes. Description: AMP gene expression in keratinocytes grown as mono-layer (real time PCR, TaqMan array). The conditions noted are these: for induction of β-Defensin 3, calculated RQ-value: HaCaT, RQ >2 = relevant induction. The assay is classed as cell-based, human. As for the experimental part:
Effects of Lactobacillus Strains on AMP Gene Expression in Keratinocytes Grown as Mono-Layer
AMP inductions were measured with real time PCR analysis using Taq-Man® Array fast 96-well plates.
HaCaT keratinocytes were cultivated in EpiLife medium, cascade Biologics, Gibco, incl. HKGS, Gibco, life technologies. Test substances were diluted in equal medium and added in a volume of 2 mL per well on 6-well plates. All samples are tested on 100% confluent cells incubated at 37° C., 5% CO2. After 24 h incubation time all samples were removed and cells washed twice with Dulbecco's Phosphate Buffered Saline with Ca and Mg, Capricorn. RNA isolation was performed using RNeasy® Mini Kit, Qiagen. The procedure has been done as describes in the RNeasy Mini Handbook.
Cells were lysed and precipitated with ethanol, the homogenate was washed three times using the spin column and the mRNA was eluated with purified water. Depending on the sample the procedure was slightly adjusted.
RNA concentration was measured using μCuvetteG 1.0 and BioPhotometer, Eppendorf by measuring the absorption at 260 nm. Control values, like E260/280 or E260/230 were calculated simultaneously. Transcription was done with a minimum of 0.5-1 μg RNA per sample.
Reverse transcription was done using high capacity RNA-to-cDNA Kit, Applied Biosystems. The procedure was based on the provided protocol. All samples were incubated in a PCR Thermocycler, Biometra running 60 min at 37° C. for reverse transcription, followed by 5 min at 95° C. (enzyme inactivation) and holding temperature at 4° C. in reaction room.
Quantitative Real-Time PCR was done using StepOne Plus Fast Real Time PCR Instrument, Applied Biosystems. Initial steps of the RT-PCR included a first heating phase holding for 20 s at 95° C., followed by 40 cycles of cDNA denaturation for 3 s at 95° C. and annealing/elongation at 60° C. for 30 s.
Analysis was done by 2-ACT Method—in detail: • 1. Standardization of Ct values with reference-gen (HPRT) ΔCTvaluegene=CTvaluegene−CTvalueReferencegene (HPRT) • 2. Subtraction of ACT-value of control sample (untreated) and ACT-value (treated) ΔΔCTvaluegene=ΔCTvaluetreated−ΔCTvaluecontrol • 3. Calculation of RQ-Ratio (relative quantification-value) RQ−value=2^−ΔΔCT
A RQ-Value of >2 was defined as relevant induction of a gene.

Assay [5] relates to 3D epidermis model system for dry skin. Description: Barrier improving efficacy on SDS damaged 3D skin models for dry skin (TEM of intercellular lipid lamellae). The assay is classed as cell-based. The settings on record: 0.5% in a skin care formulation, topical, after SDS treatment. As for the experimental part: Barrier Improving Efficacy on SDS Damaged 3D Skin Models for Dry Skin
For this purpose an in vitro study was performed on a 3D epidermis model system for dry skin. […] Disturbance of the epidermal barrier was measured as loss of intercellular lipid lamellae. The skin repair performance was determined by transmission electron microscopy (TEM) after treatment with L. plantarum HEAL 19 formulated in a cosmetic emulsion or placebo emulsion and then further cultivated to observe reformation of intercellular lipid lamellae.

[6] abbreviates: 0.05%, 24 h, gene arrays, induction defined as RQ-value >2.

Consider “Lactobacillus plantarum HEAL 19 (DSM 15313) [L. plantarum HEAL 19]”, for which the “hyaluronic acid release compared to the medium control” value in assay [1] was determined as 145%. The “growth of S. aureus (optical density)” value in assay [2] was “growth inhibition effects”. In addition, the “IL-8 release reduced to, compared to not pre-treated IL-1alpha control” value with HaCaT keratinocytes [3] worked out at 5.1%. In addition, the “induction of β-Defensin 3, calculated RQ-value” with HaCaT keratinocytes [4] (0.0125% L. plantarum HEAL 19, 24 h) was 2.3. Also, in the assay on HaCaT keratinocytes [4] (setting [6]), the “gene expression of Calprotectin” value was “induced”, the “gene expression of Lactotransferrin” value was “Significantly induced”, the “gene expression of Peptidase inhibitor 3” value is “Significantly induced” and the “gene expression of Psoriasin” value is “Significantly induced”. Also, in the assay with HaCaT keratinocytes [4] (setting [6]), the “gene expression of RNase 7” value is reported as “Significantly induced”, the “gene expression of Secretory leukocyte peptidase inhibitor” value was “Significantly induced”, the “gene expression of β-Defensin 1” value is reported as “induced” and the “gene expression of β-Defensin 3” value is “Significantly induced”. In the assay with HaCaT keratinocytes [4] (setting [6]), the “gene expression of β-Defensin 4” value is reported as “Significantly induced”. In the assay with HaCaT keratinocytes [4] (0.1% L. plantarum HEAL 19, 24 h), the “induction of β-Defensin 3, calculated RQ-value” is 243.6. Besides, the “repair performance (length of intercellular lipid lamellae)” value in assay [5] is recorded as “increased repair performance”.
